Laboratory results: PubChem BioAssay (NCI)
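Step 1: Grow cells in 96-well plates. Step 2: Expose to compound for 48 hours at 5 concentrations. Step 3: Interpolate endpoints linearly; if unreached, use highest concentration. The concentration for full growth arrest is given as TGI.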

Tests used:
Experiment in all cases: NCI anticancer screen, dose series, 48 h
NCI/ADR-RES ovarian = test system: NCI/ADR-RES ovarian
CAKI-1 renal = test system: CAKI-1 renal
PC-3 prostate = test system: PC-3 prostate
UO-31 renal = test system: UO-31 renal
SF-295 CNS = test system: SF-295 CNS
T-47D breast = test system: T-47D breast
HOP-62 NSCLC = test system: HOP-62 NSCLC
SNB-75 CNS = test system: SNB-75 CNS
NCI-H460 lung = test system: NCI-H460 lung
M14 melanoma = test system: M14 melanoma
UACC-257 melanoma = test system: UACC-257 melanoma
SN12C renal = test system: SN12C renal
SK-MEL-2 melanoma = test system: SK-MEL-2 melanoma
BT-549 breast = test system: BT-549 breast
HOP-92 NSCLC = test system: HOP-92 NSCLC
SF-539 CNS = test system: SF-539 CNS
LOX IMVI melanoma = test system: LOX IMVI melanoma
HS 578T breast = test system: HS 578T breast
NCI-H23 lung = test system: NCI-H23 lung
KM12 colon = test system: KM12 colon
SNB-19 CNS = test system: SNB-19 CNS
OVCAR-3 ovarian = test system: OVCAR-3 ovarian
COLO 205 colon = test system: COLO 205 colon
UACC-62 melanoma = test system: UACC-62 melanoma
U251 CNS = test system: U251 CNS
NCI-H226 lung = test system: NCI-H226 lung
SR leukemia = test system: SR leukemia
OVCAR-5 ovarian = test system: OVCAR-5 ovarian
IGROV1 ovarian = test system: IGROV1 ovarian
ACHN renal = test system: ACHN renal
RPMI-8226 leukemia = test system: RPMI-8226 leukemia
DU-145 prostate = test system: DU-145 prostate
MDA-MB-435 = test system: MDA-MB-435
SK-MEL-5 melanoma = test system: SK-MEL-5 melanoma
MOLT-4 leukemia = test system: MOLT-4 leukemia
HL-60(TB) leukemia = test system: HL-60(TB) leukemia
OVCAR-4 ovarian = test system: OVCAR-4 ovarian
MDA-MB-231 breast = test system: MDA-MB-231 breast
RXF 393 renal = test system: RXF 393 renal
HCT-116 colon = test system: HCT-116 colon
SK-OV-3 ovarian = test system: SK-OV-3 ovarian
SW-620 colon = test system: SW-620 colon
TK-10 renal = test system: TK-10 renal
786-0 renal = test system: 786-0 renal
NCI-H522 lung = test system: NCI-H522 lung
A498 renal = test system: A498 renal
SF-268 CNS = test system: SF-268 CNS
OVCAR-8 ovarian = test system: OVCAR-8 ovarian
EKVX NSCLC = test system: EKVX NSCLC
K-562 leukemia = test system: K-562 leukemia
HCT-15 colon = test system: HCT-15 colon
HCC-2998 colon = test system: HCC-2998 colon
MDA-N = test system: MDA-N
MCF7 breast = test system: MCF7 breast
CCRF-CEM leukemia = test system: CCRF-CEM leukemia
SK-MEL-28 melanoma = test system: SK-MEL-28 melanoma
HT29 colon = test system: HT29 colon
A549 NSCLC = test system: A549 NSCLC

`C#CCCOC(=O)CC1=C(C)/C(=C/c2ccc(S(C)=O)cc2)c2ccc(F)cc21` (stereo not drawn) showed a TGI (NCI/ADR-RES ovarian) of 36 µM, a TGI (CAKI-1 renal) of 65.4 µM and a TGI (PC-3 prostate) of 28.7 µM. For the same molecule, the TGI (UO-31 renal) was 33.6 µM, the TGI (SF-295 CNS) was 29.4 µM and the TGI (T-47D breast) was 53.7 µM. The TGI (HOP-62 NSCLC) was over 100 µM, the TGI (SNB-75 CNS) was 44.8 µM and the TGI (NCI-H460 lung) was 35.4 µM. The TGI (M14 melanoma) was 33.1 µM, the TGI (UACC-257 melanoma) was 29.7 µM and the TGI (SN12C renal) was 35.6 µM. It also gave a TGI (SK-MEL-2 melanoma) of 30.5 µM, a TGI (BT-549 breast) of 30.5 µM and a TGI (HOP-92 NSCLC) of 26.1 µM. The TGI (SF-539 CNS) was 30.5 µM, the TGI (LOX IMVI melanoma) was 33.1 µM and the TGI (HS 578T breast) was 40.4 µM. It also gave a TGI (NCI-H23 lung) of 68.9 µM, a TGI (KM12 colon) of 27.3 µM and a TGI (SNB-19 CNS) of 29.6 µM. For the same molecule, the TGI (OVCAR-3 ovarian) was 33.8 µM, the TGI (COLO 205 colon) was 32.9 µM and the TGI (UACC-62 melanoma) was 27.4 µM. It also gave a TGI (U251 CNS) of 29.4 µM, a TGI (NCI-H226 lung) of 43.3 µM and a TGI (SR leukemia) of 22.1 µM. It also gave a TGI (OVCAR-5 ovarian) of over 100 µM, a TGI (IGROV1 ovarian) of 83.1 µM and a TGI (ACHN renal) of 44.3 µM. For the same molecule, the TGI (RPMI-8226 leukemia) was 32.4 µM, the TGI (DU-145 prostate) was 31.4 µM and the TGI (MDA-MB-435) was 17.4 µM. For the same molecule, the TGI (SK-MEL-5 melanoma) was 24.7 µM, the TGI (MOLT-4 leukemia) was 44.1 µM and the TGI (HL-60(TB) leukemia) was 20.7 µM. The TGI (OVCAR-4 ovarian) was 43 µM, the TGI (MDA-MB-231 breast) was 26 µM and the TGI (RXF 393 renal) was 84.7 µM. It also gave a TGI (HCT-116 colon) of 32.3 µM, a TGI (SK-OV-3 ovarian) of 84.3 µM and a TGI (SW-620 colon) of 29.9 µM. The TGI (TK-10 renal) was 83.3 µM, the TGI (786-0 renal) was 44.7 µM and the TGI (NCI-H522 lung) was 47 µM. It also gave a TGI (A498 renal) of 30.4 µM, a TGI (SF-268 CNS) of 50 µM and a TGI (OVCAR-8 ovarian) of 42.8 µM. The TGI (EKVX NSCLC) was 71.9 µM, the TGI (K-562 leukemia) was 35.3 µM and the TGI (HCT-15 colon) was 27.1 µM. For the same molecule, the TGI (HCC-2998 colon) was 22.3 µM, the TGI (MDA-N) was 21 µM and the TGI (MCF7 breast) was 37.8 µM. The TGI (CCRF-CEM leukemia) was 35 µM.

For `CCOC(=O)c1c(Sc2ccc([N+](=O)[O-])cc2[N+](=O)[O-])nc2c3ccccc3ccn12`, the TGI (NCI/ADR-RES ovarian) was over 100 µM, the TGI (CAKI-1 renal) was over 100 µM and the TGI (PC-3 prostate) was over 100 µM. For the same molecule, the TGI (UO-31 renal) was over 100 µM, the TGI (SF-295 CNS) was over 100 µM and the TGI (T-47D breast) was over 100 µM. It also gave a TGI (HOP-62 NSCLC) of over 59.4 µM, a TGI (SNB-75 CNS) of over 100 µM and a TGI (NCI-H460 lung) of over 100 µM. The TGI (M14 melanoma) was over 100 µM, the TGI (UACC-257 melanoma) was over 100 µM and the TGI (SN12C renal) was over 100 µM. It also gave a TGI (SK-MEL-2 melanoma) of over 100 µM, a TGI (BT-549 breast) of over 100 µM and a TGI (HOP-92 NSCLC) of 41.3 µM. For the same molecule, the TGI (SF-539 CNS) was over 94.8 µM, the TGI (LOX IMVI melanoma) was over 100 µM and the TGI (HS 578T breast) was over 92.3 µM. The TGI (NCI-H23 lung) was over 100 µM, the TGI (KM12 colon) was over 100 µM and the TGI (SNB-19 CNS) was over 100 µM. For the same molecule, the TGI (OVCAR-3 ovarian) was over 100 µM, the TGI (COLO 205 colon) was over 100 µM and the TGI (SK-MEL-28 melanoma) was over 100 µM. The TGI (UACC-62 melanoma) was over 65.9 µM, the TGI (U251 CNS) was over 100 µM and the TGI (NCI-H226 lung) was over 100 µM. It also gave a TGI (SR leukemia) of over 100 µM, a TGI (OVCAR-5 ovarian) of over 100 µM and a TGI (IGROV1 ovarian) of over 31.6 µM. The TGI (ACHN renal) was over 100 µM, the TGI (RPMI-8226 leukemia) was over 100 µM and the TGI (DU-145 prostate) was over 100 µM. The TGI (MDA-MB-435) was over 100 µM, the TGI (SK-MEL-5 melanoma) was over 100 µM and the TGI (MOLT-4 leukemia) was over 100 µM. It also gave a TGI (HL-60(TB) leukemia) of over 100 µM, a TGI (OVCAR-4 ovarian) of over 100 µM and a TGI (MDA-MB-231 breast) of over 100 µM. For the same molecule, the TGI (RXF 393 renal) was over 92.9 µM, the TGI (HCT-116 colon) was over 100 µM and the TGI (SK-OV-3 ovarian) was 69.7 µM. For the same molecule, the TGI (SW-620 colon) was over 100 µM, the TGI (TK-10 renal) was over 100 µM and the TGI (786-0 renal) was over 38.6 µM. The TGI (HT29 colon) was over 100 µM, the TGI (NCI-H522 lung) was over 100 µM and the TGI (A498 renal) was over 100 µM. It also gave a TGI (SF-268 CNS) of over 100 µM, a TGI (OVCAR-8 ovarian) of over 100 µM and a TGI (A549 NSCLC) of over 100 µM. The TGI (EKVX NSCLC) was over 100 µM, the TGI (K-562 leukemia) was over 100 µM and the TGI (HCT-15 colon) was over 100 µM. The TGI (HCC-2998 colon) was over 100 µM, the TGI (MDA-N) was over 100 µM and the TGI (MCF7 breast) was over 100 µM. It also gave a TGI (CCRF-CEM leukemia) of over 100 µM.
